Key:
Assay in all cases: SILAC LC-MS ABPP
Assay type in all cases: cell-based
Conditions in all cases: 25 μM 2 h, live DM93 cells
[1] = biological target: T1, Q8NBF2 (Homo sapiens, UniProt Q8NBF2)
T1 construct: endogenous in cells; host or cells: DM93 cells (SILAC), live-cell treatment
Method in brief: (§1)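 DM93 SILAC cells, ligand 25 μM vs DMSO, 2 h; HHS-475 100 μM, 2 h; CuAAC desthiobiotin tag; 1:1 pool; trypsin; avidin enrichment; LC-MS/MS site quantification.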

[2] = biological target: T2, P04040 (Homo sapiens, UniProt P04040)
T2 construct: endogenous in cells; host or cells: DM93 cells (SILAC)
Method in brief: as §1

[3] = biological target: T3, P68371 (Homo sapiens, UniProt P68371)
T3 construct: performing SuTEx compound screening directly in cells; endogenous in cells; host or cells: DM93 cells (SILAC)
Method in brief: as §1

[4] = biological target: T4, P13674 (Homo sapiens, UniProt P13674)
T4 construct: endogenous in cells; host or cells: DM93 cells (SILAC)
Method in brief: as §1

[5] = biological target: T5, Q13033 (Homo sapiens, UniProt Q13033)
T5 construct: performing SuTEx compound screening directly in cells; endogenous in cells; host or cells: DM93 cells (SILAC), soluble fraction
Method in brief: as §1

[6] = biological target: T6, P62277 (Homo sapiens, UniProt P62277)
T6 construct: performing SuTEx compound screening directly in cells; endogenous in cells; host or cells: DM93 cells (SILAC)
Method in brief: as §1

[7] = biological target: T7, P26599 (Homo sapiens, UniProt P26599)
T7 construct: endogenous in cells; host or cells: DM93 (SILAC)
Method in brief: as §1

[8] = biological target: T8, P24534 (Homo sapiens, UniProt P24534)
T8 construct: endogenous in cells; host or cells: DM93 (SILAC)
Method in brief: as §1

[9] = biological target: T9, Q14247 (Homo sapiens, UniProt Q14247)
T9 construct: performing SuTEx compound screening directly in cells; endogenous in cells; host or cells: DM93 cells (SILAC), soluble fraction
Method in brief: as §1

[10] = biological target: T10, Q9BUJ2 (Homo sapiens, UniProt Q9BUJ2)
T10 construct: endogenous in cells; host or cells: DM93 cells (SILAC), treated live; soluble proteome analysed
Method in brief: as §1

[11] = biological target: T11, Q7Z6M1 (Homo sapiens, UniProt Q7Z6M1)
T11 construct: endogenous in cells; host or cells: DM93 cells (SILAC), live-cell treatment
Method in brief: as §1

[12] = biological target: T12, P18669 (Homo sapiens, UniProt P18669)
T12 construct: endogenous in cells; host or cells: DM93 (SILAC)
Method in brief: as §1

[13] = biological target: T13, P55795 (Homo sapiens, UniProt P55795)
T13 construct: Probe-modified proteins from the soluble fraction were conjugated to a desthiobiotin-azide tag; endogenous in cells; host or cells: DM93 cells (SILAC)
Method in brief: as §1

[14] = biological target: T14, Q9H223 (Homo sapiens, UniProt Q9H223)
T14 construct: endogenous in cells; host or cells: DM93 cells (SILAC), treated live; soluble proteome analysed
Method in brief: as §1

[15] = biological target: T15, Q6NZY4 (Homo sapiens, UniProt Q6NZY4)
T15 construct: endogenous in cells; host or cells: DM93 cells (SILAC), live-cell treatment
Method in brief: as §1

[16] = biological target: T16, P06396 (Homo sapiens, UniProt P06396)
T16 construct: endogenous in cells; host or cells: DM93 cells (SILAC)
Method in brief: as §1

[17] = biological target: T17, P49721 (Homo sapiens, UniProt P49721)
T17 construct: endogenous in cells; host or cells: DM93 cells (SILAC)
Method in brief: as §1

[18] = biological target: T18, O00267 (Homo sapiens, UniProt O00267)
T18 construct: endogenous in cells; host or cells: DM93
Method in brief: as §1

T13 sequence (P55795 whole entry): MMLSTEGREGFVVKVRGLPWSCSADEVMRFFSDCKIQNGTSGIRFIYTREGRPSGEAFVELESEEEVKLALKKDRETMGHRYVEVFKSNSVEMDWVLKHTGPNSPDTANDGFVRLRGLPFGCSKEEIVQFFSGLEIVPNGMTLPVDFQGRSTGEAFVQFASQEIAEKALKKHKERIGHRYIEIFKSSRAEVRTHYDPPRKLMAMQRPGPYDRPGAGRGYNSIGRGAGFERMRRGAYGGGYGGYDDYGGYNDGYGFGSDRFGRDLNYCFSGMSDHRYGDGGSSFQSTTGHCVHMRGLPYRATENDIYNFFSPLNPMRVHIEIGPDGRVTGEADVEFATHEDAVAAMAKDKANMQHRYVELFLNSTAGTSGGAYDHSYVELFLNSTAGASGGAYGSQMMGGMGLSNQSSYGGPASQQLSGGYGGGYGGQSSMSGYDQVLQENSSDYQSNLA
T15 sequence (Q6NZY4 whole entry): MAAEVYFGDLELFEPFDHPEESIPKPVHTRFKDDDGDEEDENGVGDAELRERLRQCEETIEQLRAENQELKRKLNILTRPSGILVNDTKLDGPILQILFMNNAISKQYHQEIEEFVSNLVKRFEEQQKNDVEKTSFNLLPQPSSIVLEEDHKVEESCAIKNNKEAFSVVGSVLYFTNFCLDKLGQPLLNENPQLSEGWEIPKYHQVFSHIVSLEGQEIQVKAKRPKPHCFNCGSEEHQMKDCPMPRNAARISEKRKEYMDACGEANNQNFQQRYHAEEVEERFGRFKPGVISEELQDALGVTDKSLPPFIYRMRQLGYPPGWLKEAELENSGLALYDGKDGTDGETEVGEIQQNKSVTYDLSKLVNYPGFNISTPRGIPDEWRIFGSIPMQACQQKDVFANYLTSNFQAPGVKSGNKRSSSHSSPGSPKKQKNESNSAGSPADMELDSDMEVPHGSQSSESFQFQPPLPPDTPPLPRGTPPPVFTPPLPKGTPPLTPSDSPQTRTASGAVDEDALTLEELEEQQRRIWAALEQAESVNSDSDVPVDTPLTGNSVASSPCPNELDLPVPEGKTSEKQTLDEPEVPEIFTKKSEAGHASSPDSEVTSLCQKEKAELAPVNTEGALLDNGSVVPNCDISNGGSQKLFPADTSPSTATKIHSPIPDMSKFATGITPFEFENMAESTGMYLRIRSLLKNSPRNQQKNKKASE
T10 sequence (Q9BUJ2 whole entry): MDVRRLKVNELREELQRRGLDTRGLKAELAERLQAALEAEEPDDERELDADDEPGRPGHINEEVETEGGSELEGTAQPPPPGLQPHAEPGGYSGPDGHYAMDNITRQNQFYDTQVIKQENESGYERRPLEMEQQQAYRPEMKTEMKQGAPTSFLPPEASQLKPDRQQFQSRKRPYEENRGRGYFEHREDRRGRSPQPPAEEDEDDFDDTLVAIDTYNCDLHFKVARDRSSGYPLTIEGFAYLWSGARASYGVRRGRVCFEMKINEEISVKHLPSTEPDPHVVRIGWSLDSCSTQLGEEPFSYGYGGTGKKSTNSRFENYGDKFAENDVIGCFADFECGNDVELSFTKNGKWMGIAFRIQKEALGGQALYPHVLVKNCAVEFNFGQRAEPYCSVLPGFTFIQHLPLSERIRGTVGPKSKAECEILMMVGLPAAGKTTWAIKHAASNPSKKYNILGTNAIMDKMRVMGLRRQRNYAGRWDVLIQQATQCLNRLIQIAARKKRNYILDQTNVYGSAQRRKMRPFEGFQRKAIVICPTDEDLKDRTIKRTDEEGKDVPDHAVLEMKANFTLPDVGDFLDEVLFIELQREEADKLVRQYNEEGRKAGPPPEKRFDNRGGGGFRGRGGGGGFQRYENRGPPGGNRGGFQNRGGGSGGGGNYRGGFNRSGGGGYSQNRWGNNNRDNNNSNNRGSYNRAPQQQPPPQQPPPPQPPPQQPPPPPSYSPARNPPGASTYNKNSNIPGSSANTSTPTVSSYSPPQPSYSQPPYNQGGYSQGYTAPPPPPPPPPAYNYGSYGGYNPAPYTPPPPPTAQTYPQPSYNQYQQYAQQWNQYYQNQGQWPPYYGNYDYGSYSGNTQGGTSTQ
T1 sequence (Q8NBF2 whole entry): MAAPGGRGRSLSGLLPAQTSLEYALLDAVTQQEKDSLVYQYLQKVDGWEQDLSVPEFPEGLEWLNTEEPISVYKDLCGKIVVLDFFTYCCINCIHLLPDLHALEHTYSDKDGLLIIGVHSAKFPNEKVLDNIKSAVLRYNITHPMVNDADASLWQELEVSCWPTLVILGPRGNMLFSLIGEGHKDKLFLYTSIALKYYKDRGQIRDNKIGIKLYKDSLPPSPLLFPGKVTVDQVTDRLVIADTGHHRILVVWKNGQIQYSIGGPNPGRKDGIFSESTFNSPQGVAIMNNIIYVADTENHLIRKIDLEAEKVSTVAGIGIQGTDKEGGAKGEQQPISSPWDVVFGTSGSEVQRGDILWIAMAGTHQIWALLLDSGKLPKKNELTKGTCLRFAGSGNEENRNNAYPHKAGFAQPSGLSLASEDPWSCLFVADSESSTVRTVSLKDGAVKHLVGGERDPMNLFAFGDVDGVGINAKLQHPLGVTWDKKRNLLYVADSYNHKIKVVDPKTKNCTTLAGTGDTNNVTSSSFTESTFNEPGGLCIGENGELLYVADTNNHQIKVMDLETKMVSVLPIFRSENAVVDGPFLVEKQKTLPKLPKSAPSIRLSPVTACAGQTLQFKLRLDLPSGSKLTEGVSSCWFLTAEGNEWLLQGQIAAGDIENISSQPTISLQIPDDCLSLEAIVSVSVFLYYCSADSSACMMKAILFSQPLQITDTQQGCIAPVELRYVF
T2 sequence (P04040 whole entry): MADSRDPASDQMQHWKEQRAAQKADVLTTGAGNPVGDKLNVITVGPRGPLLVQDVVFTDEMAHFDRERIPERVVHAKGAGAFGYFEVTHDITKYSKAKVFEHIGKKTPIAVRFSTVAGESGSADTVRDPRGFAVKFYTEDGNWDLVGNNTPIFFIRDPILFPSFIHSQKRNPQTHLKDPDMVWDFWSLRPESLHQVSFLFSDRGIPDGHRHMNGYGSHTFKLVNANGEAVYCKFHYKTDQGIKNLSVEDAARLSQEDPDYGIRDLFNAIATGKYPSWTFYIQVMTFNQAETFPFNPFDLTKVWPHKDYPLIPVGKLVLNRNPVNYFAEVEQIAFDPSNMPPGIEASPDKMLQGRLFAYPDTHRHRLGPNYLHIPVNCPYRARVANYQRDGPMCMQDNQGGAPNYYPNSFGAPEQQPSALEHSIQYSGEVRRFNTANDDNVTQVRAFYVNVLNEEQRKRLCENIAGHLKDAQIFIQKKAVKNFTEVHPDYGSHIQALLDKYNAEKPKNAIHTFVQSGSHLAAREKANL
T7 sequence (P26599 whole entry): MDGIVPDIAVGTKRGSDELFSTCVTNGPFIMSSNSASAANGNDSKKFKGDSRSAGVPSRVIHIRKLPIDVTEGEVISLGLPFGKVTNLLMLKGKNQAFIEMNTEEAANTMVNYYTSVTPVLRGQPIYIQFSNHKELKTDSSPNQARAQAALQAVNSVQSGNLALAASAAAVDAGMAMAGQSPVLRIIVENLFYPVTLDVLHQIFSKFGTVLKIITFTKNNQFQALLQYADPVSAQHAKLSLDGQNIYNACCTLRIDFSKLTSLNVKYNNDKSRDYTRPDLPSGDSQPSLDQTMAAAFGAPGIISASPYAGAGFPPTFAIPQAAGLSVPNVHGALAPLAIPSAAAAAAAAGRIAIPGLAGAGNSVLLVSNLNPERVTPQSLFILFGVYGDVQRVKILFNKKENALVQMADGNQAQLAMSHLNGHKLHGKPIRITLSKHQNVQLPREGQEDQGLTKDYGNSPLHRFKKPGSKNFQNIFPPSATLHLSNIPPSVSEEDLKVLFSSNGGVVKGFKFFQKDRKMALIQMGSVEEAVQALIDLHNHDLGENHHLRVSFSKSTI
T11 sequence (Q7Z6M1 whole entry): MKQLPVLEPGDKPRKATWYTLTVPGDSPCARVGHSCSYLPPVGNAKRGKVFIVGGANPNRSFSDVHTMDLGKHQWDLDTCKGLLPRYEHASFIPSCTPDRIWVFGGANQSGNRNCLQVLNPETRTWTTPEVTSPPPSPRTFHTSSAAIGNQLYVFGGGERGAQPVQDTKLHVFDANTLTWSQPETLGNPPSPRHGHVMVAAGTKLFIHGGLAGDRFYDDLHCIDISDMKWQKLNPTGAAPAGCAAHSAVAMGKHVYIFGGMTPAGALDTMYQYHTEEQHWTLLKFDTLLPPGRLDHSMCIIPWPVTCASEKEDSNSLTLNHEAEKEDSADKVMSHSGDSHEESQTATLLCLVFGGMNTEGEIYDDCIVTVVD
T16 sequence (P06396 52-782 limits assumed): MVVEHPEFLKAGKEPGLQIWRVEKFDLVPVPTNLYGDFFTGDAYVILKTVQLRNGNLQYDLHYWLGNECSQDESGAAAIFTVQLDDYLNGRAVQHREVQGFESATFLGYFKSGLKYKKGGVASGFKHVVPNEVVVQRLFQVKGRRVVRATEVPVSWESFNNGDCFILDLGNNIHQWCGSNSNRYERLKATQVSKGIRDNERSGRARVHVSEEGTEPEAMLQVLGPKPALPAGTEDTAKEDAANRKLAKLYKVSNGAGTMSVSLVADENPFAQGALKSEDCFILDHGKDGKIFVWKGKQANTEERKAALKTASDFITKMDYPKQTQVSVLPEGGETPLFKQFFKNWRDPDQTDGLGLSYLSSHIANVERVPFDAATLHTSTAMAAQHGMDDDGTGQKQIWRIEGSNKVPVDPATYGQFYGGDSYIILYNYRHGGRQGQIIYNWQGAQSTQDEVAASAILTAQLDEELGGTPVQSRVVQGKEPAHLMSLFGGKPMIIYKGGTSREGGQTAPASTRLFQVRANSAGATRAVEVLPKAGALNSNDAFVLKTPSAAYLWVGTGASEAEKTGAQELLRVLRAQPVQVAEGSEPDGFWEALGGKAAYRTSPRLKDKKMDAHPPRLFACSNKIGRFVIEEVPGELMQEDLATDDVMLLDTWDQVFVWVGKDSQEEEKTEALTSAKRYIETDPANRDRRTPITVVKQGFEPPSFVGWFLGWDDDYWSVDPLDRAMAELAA

`O=C(NC1CC1)c1ccc(S(=O)(=O)n2cncn2)cc1` [HHS-0101, 4-((1H-1,2,4-triazol-1-yl)sulfonyl)-N-cyclopropylbenzamide] was tested, and the “liganded tyrosine site 23” value [1] was “HHS0101.Y (tyrosine sites that showed >80% reductions (SR >5) in probe labeling in cells treated with compounds (liganded sites))”, the “liganded tyrosine site 358” value [2] was “HHS0101.Y|HHS0201.Y|HHS0301.Y|HHS0701.Y (tyrosine sites that showed >80% reductions (SR >5) in probe labeling in cells treated with compounds (liganded sites))” and the “liganded tyrosine site 50” value [3] was “HHS0101.Y (tyrosine sites that showed >80% reductions (SR >5) in probe labeling in cells treated with compounds (liganded sites))”. The “liganded tyrosine site 250” value [4] was “HHS0101.Y (tyrosine sites that showed >80% reductions (SR >5) in probe labeling in cells treated with compounds (liganded sites))”, the “liganded tyrosine site 137” value [5] was “HHS0101.Y|HHS0401.Y (tyrosine sites that showed >80% reductions (SR >5) in probe labeling in cells treated with compounds (liganded sites))” and the “liganded tyrosine site 38” value [6] was “HHS0101.Y (tyrosine sites that showed >80% reductions (SR >5) in probe labeling in cells treated with compounds (liganded sites))”. The “liganded tyrosine site 430” value [7] was “HHS0101.Y|HHS0201.Y|HHS0401.Y (tyrosine sites that showed >80% reductions (SR >5) in probe labeling in cells treated with compounds (liganded sites))”.
In the case of `O=C(NCC1CC1)c1ccc(S(=O)(=O)n2cncn2)cc1` [HHS-0201, 4-((1H-1,2,4-triazol-1-yl)sulfonyl)-N-(cyclopropylmethyl)benzamide], the “liganded tyrosine site 18” value [8] was “HHS0201.Y|HHS0401.Y|HHS0701.Y (tyrosine sites that showed >80% reductions (SR >5) in probe labeling in cells treated with compounds (liganded sites))”.
With `O=C(NC1CCCCC1)c1ccc(S(=O)(=O)n2cncn2)cc1` [HHS-0301, 4-((1H-1,2,4-triazol-1-yl)sulfonyl)-N-cyclohexylbenzamide] the “liganded tyrosine site 154” value [9] was “HHS0301.Y|HHS0401.Y (tyrosine sites that showed >80% reductions (SR >5) in probe labeling in cells treated with compounds (liganded sites))” and the “liganded tyrosine site 111” value [10] was “HHS0301.Y|HHS0701.Y (tyrosine sites that showed >80% reductions (SR >5) in probe labeling in cells treated with compounds (liganded sites))”.
With `O=C(NCc1ccccc1)c1ccc(S(=O)(=O)n2cncn2)cc1` [HHS-0401, 4-((1H-1,2,4-triazol-1-yl)sulfonyl)-N-benzylbenzamide] the “liganded tyrosine site 87” value [11] was “HHS0401.Y|HHS0701.Y (tyrosine sites that showed >80% reductions (SR >5) in probe labeling in cells treated with compounds (liganded sites))” and the “liganded tyrosine site 119” value [12] was “HHS0401.Y (tyrosine sites that showed >80% reductions (SR >5) in probe labeling in cells treated with compounds (liganded sites))”.
In the case of `O=C(c1ccc(S(=O)(=O)n2cncn2)cc1)N1CCC(c2ccccc2)CC1` [HHS-0701, (4-((1H-1,2,4-triazol-1-yl)sulfonyl)phenyl)(4-phenylpiperidin-1-yl)methanone], the “liganded tyrosine site 240” value [13] was “HHS0701.Y (tyrosine sites that showed >80% reductions (SR >5) in probe labeling in cells treated with compounds (liganded sites))”, the “liganded tyrosine site 243” value [13] was “HHS0701.Y (tyrosine sites that showed >80% reductions (SR >5) in probe labeling in cells treated with compounds (liganded sites))” and the “liganded tyrosine site 70” value [14] was “HHS0701.Y (tyrosine sites that showed >80% reductions (SR >5) in probe labeling in cells treated with compounds (liganded sites))”. For the same molecule, the “liganded tyrosine site 258” value [15] was “HHS0701.Y (tyrosine sites that showed >80% reductions (SR >5) in probe labeling in cells treated with compounds (liganded sites))”, the “liganded tyrosine site 469” value [16] was “HHS0701.Y (tyrosine sites that showed >80% reductions (SR >5) in probe labeling in cells treated with compounds (liganded sites))” and the “liganded tyrosine site 134” value [17] was “HHS0701.Y (tyrosine sites that showed >80% reductions (SR >5) in probe labeling in cells treated with compounds (liganded sites))”. For the same molecule, the “liganded tyrosine site 249” value [18] was “HHS0701.Y (tyrosine sites that showed >80% reductions (SR >5) in probe labeling in cells treated with compounds (liganded sites))”.
